In one test the test system is TRPM-1 promoter. As to the kind of experiment: SK-MEL-5 TRPM-1 luciferase reporter (TRPM-1 promoter activity assay). In kind it is cell-based. The settings on record: Homo sapiens; SK-MEL-5 TRPM-1:luc cells, 24 hours, SteadyGlo; read-out: Target Potency IC50 (μM) TRPM1. As for the experimental part: The TRPM1 luciferase promoter construct was transfected into the SK-MEL-5 melanoma cell line and a stable cell line was generated. This promoter is exquisitely sensitive to MITF over-expression and suppression and contains three canonical E-box motifs within the cloned promoter fragment (17). On day 0, cells were plated at 2,000 cells per well into white, opaque 384 well plates in phenol red-free media. On day 1, cells were treated with compounds or positive control for 24 hours. On day 2, 20 uL of SteadyGlo (Promega) was added per well and luminescence signal was determined with the Perkin-Elmer EnVision plate reader. Primary HTS data were analyzed in Genedata Screener Assay Analyzer. All values were normalized against DMSO treated samples and the positive control (18 μM parthenolide, CID 6473881). For the HTS, the average of two replicates was used to rank order activity and to choose compounds for retests. For dose studies, percent (%) activity was determined for each concentration and the concentration response curves (CRCs) were generated with Genedata Screener's Condoseo.
SK-MEL-5/TRPM1Luc cells were maintained in DMEM (10% FBS, 1% Pen-Strep-Glutamine, 250 ug/mL Hygromycin). […]
Day 3 • 5. […] Read on the Perkin-Elmer EnVision plate reader with ultra-sensitive luminescence (US LUM) settings for 0.5 sec per well SK-MEL-5 Cytotoxicity Assay (2084-02)
Background: Reporter assays use an easily measured gene product as a stand-in for the process of interest.

For another test, the target named is T1, Adrenergic α2A (Homo sapiens, UniProt P08913).
T1 construct: Eurofins Panlabs, Inc. (contract assay)
T1 sequence (P08913 whole entry): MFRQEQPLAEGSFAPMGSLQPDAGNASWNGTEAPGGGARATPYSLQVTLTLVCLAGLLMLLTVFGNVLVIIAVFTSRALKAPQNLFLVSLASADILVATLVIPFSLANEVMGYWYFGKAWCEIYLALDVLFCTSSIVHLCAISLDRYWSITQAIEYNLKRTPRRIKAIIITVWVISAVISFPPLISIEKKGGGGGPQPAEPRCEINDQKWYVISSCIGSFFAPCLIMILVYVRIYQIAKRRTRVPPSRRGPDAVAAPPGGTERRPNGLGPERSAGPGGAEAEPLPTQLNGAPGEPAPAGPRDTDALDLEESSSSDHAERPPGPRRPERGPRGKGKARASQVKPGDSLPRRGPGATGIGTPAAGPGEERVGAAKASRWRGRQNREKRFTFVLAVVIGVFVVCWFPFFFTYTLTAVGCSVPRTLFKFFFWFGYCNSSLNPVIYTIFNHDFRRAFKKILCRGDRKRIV
As to the kind of experiment: Radioligand binding, Adrenergic α2A.

Test [1] has as its target T2, Transporter, Dopamine (DAT) (Homo sapiens, UniProt Q01959).
T2 construct: Eurofins Panlabs
As to the kind of experiment: Radioligand binding, Transporter, Dopamine (DAT).

Each structure is given as a SMILES string.

T2 sequence (Q01959 whole entry): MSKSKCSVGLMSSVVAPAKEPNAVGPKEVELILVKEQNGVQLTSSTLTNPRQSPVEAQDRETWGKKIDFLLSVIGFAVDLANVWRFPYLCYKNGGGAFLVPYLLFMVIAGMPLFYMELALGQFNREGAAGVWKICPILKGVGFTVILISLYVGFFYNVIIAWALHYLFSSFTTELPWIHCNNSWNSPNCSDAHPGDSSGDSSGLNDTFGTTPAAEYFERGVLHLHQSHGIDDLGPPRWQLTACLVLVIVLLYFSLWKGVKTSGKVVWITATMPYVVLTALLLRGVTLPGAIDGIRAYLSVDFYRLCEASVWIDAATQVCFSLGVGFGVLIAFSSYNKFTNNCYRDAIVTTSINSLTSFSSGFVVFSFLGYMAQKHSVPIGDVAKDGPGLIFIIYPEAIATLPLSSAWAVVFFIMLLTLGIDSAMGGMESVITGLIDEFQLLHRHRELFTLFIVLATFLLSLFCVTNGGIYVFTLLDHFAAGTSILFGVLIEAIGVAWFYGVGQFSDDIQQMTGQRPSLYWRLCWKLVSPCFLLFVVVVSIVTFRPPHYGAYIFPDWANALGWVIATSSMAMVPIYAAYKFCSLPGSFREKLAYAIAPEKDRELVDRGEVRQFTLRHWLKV

For the compound `NS(=O)(=O)c1ccc(NC2=CC(=O)c3ccccc3C2=O)cc1` [4-((1,4-dioxo-1,4-dihydronaphthalen-2-yl)amino)benzenesulfonamide], the IC50 in the test on TRPM-1 promoter stood at 1.2 µM. `NS(=O)(=O)c1ccc(NC2=CC(=O)c3ccccc3C2=O)cc1` [Example 1, 4-((1,4-Dioxo-1,4-dihydronaphthalen-2-yl)amino)benzenesulfonamide]: the inhibition at 10 µM on Adrenergic α2A was 33%; in test [1], 2%.

By IC50 is commonly meant the concentration that gives 50% inhibition. The term inhibition denotes the change of the read-out against control, counted positive when it falls. A low value points to a response near the control.

The values are drawn from US9745261B2, “Inhibitors of the MITF molecular pathway” (THE GENERAL HOSPITAL CORPORATION, priority 2013, dated 2017).
